Data: patent publication US20050171358A1 (priority 2002, published 2005)

Experiments:
[1] = tested on: Pyricularia oryzae; assay type: in vivo; settings: 200 ppm spray on rice (Koshihikari, 3 leaf stage), inoculated next day; lesion numbers on third leaves after 7 days in green house, graded by Table 5
[2] = tested on: Colletotrichum lagenarium; settings: 200 ppm spray on cucumber (3 leaf stage), inoculated next day; lesion numbers on first and second leaves after 7 days in green house, graded by Table 5

Compound | Evaluation (effect for rice blast) [1] | Evaluation (effect for cucumber anthracnose) [2]
COc1ccc(C(=O)NCc2cc(/C=C/C(C)C)no2)cc1 | 4 (1˜5) | 4 (1˜5)
O=C(NCc1cc(Cc2ccccc2)no1)OC1CCCCC1 | 4 (1˜5) | 
CC(C)c1cc(CNC(=O)Oc2ccccc2)on1 [I-4] | 5 (0) | 5 (0)
O=C(NCc1cc(C2CCCCC2)no1)Oc1ccccc1 [I-6, phenyl[(3-cyclohexyl-5-isoxazolyl)methyl]carbamate] | 5 (0) | 5 (0)
CC(C)Cc1cc(CNC(=O)Oc2ccccc2)on1 [I-8, phenyl [(3-isobutyl-5-isoxazolyl)methyl]carbamate] | 3 (6˜10) | 3 (6˜10)
Cc1ccc(-c2cc(CNC(=O)Oc3ccccc3)on2)cc1 [I-25, phenyl{[3-(4-tolyl)-5-isoxazolyl)methyl]carbamate] | 5 (0) | 
COc1ccc(-c2cc(CNC(=O)Oc3ccccc3)on2)cc1 [I-26, phenyl{[3-(4-methoxyphenyl)-5-isoxazolyl]methyl}carbamate] | 5 (0) | 5 (0)
O=C(NCc1cc(-c2ccc(F)cc2)no1)Oc1ccccc1 [I-27, phenyl{[3-(4-fluorophenyl)-5-isoxazolyl)methyl]carbamate] | 5 (0) | 5 (0)
O=C(NCc1cc(-c2ccccc2Cl)no1)Oc1ccccc1 [I-28, phenyl{[3-(2-chlorophenyl)-5-isoxazolyl]methyl}carbamate] | 4 (1˜5) | 5 (0)
O=C(NCc1cc(-c2cccc(Cl)c2)no1)Oc1ccccc1 [I-29, phenyl{[3-(3-chlorophenyl)-5-isoxazolyl)methyl]carbamate] | 5 (0) | 5 (0)
O=C(NCc1cc(-c2ccc(Cl)cc2)no1)Oc1ccccc1 [I-30, phenyl{[3-(4-chlorophenyl)-5-isoxazolyl)methyl]carbamate] | 5 (0) | 5 (0)
O=C(NCc1cc(-c2ccccn2)no1)Oc1ccccc1 [I-31, phenyl{[3-(2-pyrizyl)-5-isoxazolyl]methyl}carbamate] | 4 (1˜5) | 
O=C(NCc1cc(-c2cccs2)no1)Oc1ccccc1 [I-32, phenyl{[3-(2-thienyl)-5-isoxazolyl)methyl]carbamate] | 5 (0) | 
O=C(NCc1cc(-c2ccco2)no1)Oc1ccccc1 [I-33, phenyl{[3-(2-furyl)-5-isoxazolyl)methyl]carbamate] | 5 (0) | 5 (0)
O=C(NCc1cc(Cc2ccccc2)no1)Oc1ccccc1 [I-38, phenyl[(3-benzyl-5-isoxazolyl)methyl]carbamate] | 5 (0) | 5 (0)
O=C(NCc1cc(-c2ccccc2)no1)OCc1ccccc1 [I-41, benzyl [(3-phenyl-5-isoxazolyl)methyl]carbamate] | 3 (6˜10) | 4 (1˜5)
CC(C)(NC(=O)NCc1cc(-c2ccccc2)no1)c1ccccc1 [I-45] | 4 (1˜5) | 4 (1˜5)
CC(C)c1cc(CNC(=O)C(C)c2ccccc2)on1 (stereo not shown) [I-47, N-[(3-isopropyl-5-isoxazolyl)methyl]-2-phenylpropanamide] | 4 (1˜5) | 4 (1˜5)
O=C(Cc1ccccc1)NCc1cc(-c2ccccc2)no1 [I-48, N-[(3-phenyl-5-isoxazolyl)methyl]-2-phenylethanamide] | 4 (1˜5) | 

Compound | Evaluation (effect for rice blast) [1] | Evaluation (effect for cucumber anthracnose) [2]
O=C(NCc1cc(-c2ccccc2)no1)C(Cl)c1ccccc1 (stereo not shown) [I-49, N-[(3-phenyl-5-isoxazolyl)methyl]-2-chloro-2-phenylethanamide] | 3 (6˜10) | 
CC(C)c1cc(CNC(=O)Cc2ccccc2)on1 [I-63, N-[(3-isopropyl-5-isoxazolyl)methyl]phenylacetamide] | 2 (11˜20) | 
CC(C)Cc1cc(CNC(=O)Cc2ccccc2)on1 [I-64, N-[(3-isobutyl-5-isoxazolyl)methyl]phenylacetamide] | 2 (11˜20) | 3 (6˜10)
Cc1ccc(-c2cc(CNC(=O)Nc3ccccc3)on2)cc1 [II-2, 3-{[3-(4-tolyl)-5-isoxazolyl]methyl}-1-phenyl urea] | 5 (0) | 
CC(C)c1cc(CNC(=O)Nc2ccccc2)on1 [II-3, 1-[(3-isopropyl-5-isoxazolyl)methyl]-3-phenylurea] | 3 (6˜10) | 
O=C(NCc1cc(-c2ccccc2)no1)Nc1cccc(Cl)c1 [II-49, 1-[(3-phenyl-5-isoxazolyl)methyl]-3-(3-chlorophenyl)urea] | 4 (1˜5) | 
O=C(NCc1cc(-c2ccccc2)no1)Nc1ccc(Cl)cc1 [II-50, 1-[(3-phenyl-5-isoxazolyl)methyl]-3-(4-chlorophenyl)urea] | 5 (0) | 
O=C(NCc1cc(-c2ccccc2)no1)Nc1ccccn1 [II-99, 1-[(3-phenyl-5-isoxazolyl)methyl]-3-(2-pyridyl)urea] | 3 (6˜10) | 
CC(=O)Nc1ccc(-c2cc(CNC(=O)c3ccc(C)cc3)on2)cc1 [III-57, N-{[3-(4-acetamidophenyl)-5-isoxazolyl]methyl}-4-methylbenzamide] | 2 (11˜20) | 
Cc1ccc(-c2cc(CNC(=O)N3CCCCC3)on2)cc1 [III-203] | 2 (11˜20) | 
CC1C(Cl)(Cl)C1(C)C(=O)NCc1cc(-c2ccccc2)no1 (stereo not shown) [III-212] | 2 (11˜20) | 
CC(NC(=O)C1(C)C(C)C1(Cl)Cl)c1cc(-c2ccccc2)no1 (stereo not shown) [III-213, N-[1-(3-phenyl-5-isoxazolyl)ethyl]-2,2-dichloro-1,3-dimethylcyclopropanecarboxamide] | 3 (6˜10) | 
CCc1ccc(C(=O)NCc2cc(Cc3ccccc3)no2)cc1 [IV-6, N-[(3-benzyl-5-isoxazolyl)methyl]-4-ethylbenzamide] | 5 (0) | 
CS(=O)(=O)c1ccc(C(=O)NCc2cc(Cc3ccccc3)no2)cc1 [IV-8, N-[(3-benzyl-5-isoxazolyl)methyl]-4-methanesulfonylbenzamide] | 3 (6˜10) | 
COc1ccc(C(=O)NCc2cc(COc3ccccc3C#N)no2)cc1 [IV-51, N-{[3-(2-cyanophenyl)oxymethyl-5-isoxazolyl]methyl}-4-methoxybenzamide] | 2 (11˜20) | 
COc1ccc(C(=O)NCc2cc(COc3cccnc3)no2)cc1 [IV-91, N-{[3-(3-pyridyl)oxymethyl-5-isoxazolyl]methyl}-4-methoxybenzamide] | 3 (6˜10) | 
COc1ccc(C(=O)NCc2cc(C(=O)c3ccccc3)no2)cc1 [IV-98, N-[(3-benzoyl-5-isoxazolyl)methyl]-4-methoxybenzamide] | 2 (11˜20) | 
COc1ccc(C(=O)NCc2cc(C(=O)Nc3ccc(Cl)cc3)no2)cc1 [IV-106, N-{[3-(4-chlorophenyl)aminocarbonyl-5-isoxazolyl]methyl}-4-methoxybenzamide] | 2 (11˜20) | 
